Results: PMC9917214, “Assessment of the Permeability of 3,4-Methylenedioxypyrovalerone (MDPV) across the Caco-2 Monolayer for Estimation of Intestinal Absorption and Enantioselectivity” (International Journal of Molecular Sciences, 2023)

Experiments:
[1] = Sample stability in HBSS (+/+) after 6 weeks of storage (UHPLC-UV peak area); format: physicochemical
Protocol: To evaluate stability, three different calibrators within the linear concentration range (10 (low), 100 (medium), and 500 (high) μM) were prepared and injected into the UHPLC. The remaining volume of each calibrator was divided into several vials and further stored at different temperatures (room temperature, 4 °C, −20 °C, and −80 °C) for 6 weeks (the same storage time of the samples obtained from the permeability assay with Caco-2 cells). After the storage period, samples were injected in duplicate and the obtained analyte peak area for each calibrator in each temperature was compared with the peak area obtained on day 0. Percentages of peak variation were calculated for each concentration.

Caco-2 cells [2] = assay: Cell viability assay (Neutral Red) in Caco-2 cells; format: cell-based, human; conditions: 24 h, NR assay
Protocol: MDPV cytotoxicity for the Caco-2 cell line was evaluated through the NR assay as previously described. This method provides an indication of the ability of lysosomes from viable cells to incorporate the NR dye. Caco-2 cells were seeded onto 96-well plates using a density of 60,000 cells/cm^2 to obtain confluent monolayers at the experimental day. The cells were incubated with the racemate of MDPV (0, 50, 150, 300, 500, 750, 1000, 1250, and 1500 µM) in fresh cell culture medium for 24 h. After the selected time interval, the cell culture medium was removed and replaced by a 50 µg/mL NR solution in HBSS (+/+) for 90 min, after which the NR solution was discarded, a lysis solution (50% EtOH/1% glacial acetic acid solution) was added, and the absorbance was read at 540 nm in a 96-well plate reader (PowerWaveX; Bio-Tek, Winooski, VT, USA). Additionally, 1% Triton X-100 was used as the positive control. Data were expressed as the percentage of cell viability relative to untreated cells. Data were obtained from four independent experiments performed in triplicate.

Caco-2 cells [3] = conditions: racemates; cited from earlier work
Caco-2 monolayer = assay: Permeability assay across the Caco-2 monolayer; format: in vitro ADME, human; conditions: mean ± SD; for Mass Balance (%): 300 µM in HBSS (+/+), 300 min
Protocol: For the in vitro permeability assay, Caco-2 cells were seeded on polycarbonate transwell inserts (12-well, 0.4 μm pores, Corning) using a density of 120,000 cells/cm^2 and cultivated for twenty-one days to allow the development of a differentiated monolayer. TEER was measured to control the integrity of the monolayers for twenty-one days.
After twenty-one days, the cells were incubated with 300 µM of each enantiomer of MDPV (in HBSS (+/+)). The assay was performed for both AP to BL and BL to AP directions. For AP to BL, exposure to the enantiomers was performed in the AP compartment (450 µL) while for BL to AP, exposure was made in the BL compartment (1250 µL). Right after the exposure (time 0), 50 µL was collected from each donor compartment (where exposure was performed). At suitable time intervals (40, 60, 90, 120, 180, 240, and 300 min), 600 µL (for AP to BL) and 200 µL (for BL to AL) of samples was collected from the BL and AP compartments (receiver compartments), respectively, and the same amount of HBSS (+/+) was added. In the last time point (300 min), 50 µL was also collected from the donor compartment. Collected samples were stored at −80 °C until the day of the UHPLC analysis. After 6 weeks of storage, samples were filtered with a 13 mm nylon syringe filter with […] pore size from Olimpeak™ and quantification was performed by the validated UHPLC-UV method. Results were obtained for three experiments, performed in duplicate.
Mass balance was calculated using the following equation [31]:(5) % Mass balance=100×QR,T+QD,f/QD,0 where QR,T is the total cumulative quantity in the receiver chamber (nmol), QD,f is the final quantity in the donor chamber (nmol), and QD,0 is the initial quantity in the donor chamber (nmol).
To calculate Papp, first, a determination had to be made to determine whether the results were under sink or non-sink conditions. […] If the ratio is higher, Papp has to be calculated considering a non-sink analysis.
For sink conditions, Papp was calculated in cm/s using the following equation [24]:(6) Papp=ΔQ/Δt×1/A×C0 where ΔQ/Δt is the amount of compound over time (mol/s), A is the surface area of the monolayer (cm^2), and C0 is the initial drug concentration on the donor side (mol/mL).
For non-sink conditions, a continuous change of the donor and receiver concentrations is considered, and the following equation must be used for each time interval to calculate the theoretical concentration at the receiver side:(7) CR(t)=(Qtot/VD+VR)+(CR(t−1)×f−Qtot/VD+VR)×e^−P×A×(1/VR+1/VD)×Δt where CR(t) is the theoretical concentration in the receiver side at time t (µM), Qtot is the total amount of drug in both chambers at time t (nmol), VR and VD are the volumes in the receiver and donor compartments (mL), respectively, CR(t-1) is the concentration in the receiver chamber at the previous time (µM), f is the dilution factor for the sample replacement, A is the surface area of the monolayer (cm^2), Δt is the time interval (s), and P is an initial approximation of the permeability coefficient calculated through Equation (6) (cm/s).
Papp values are determined by the minimization of the Sum of Squared Residuals (SSR):(8) SSR=∑[CR(t)theor−CR(t)exp]^2 where CR(t)theor is the theoretical concentration in the receiver side at time t calculated through Equation (7) and CR(t)exp is the experimental concentration in the receiver side at time t obtained directly from the quantification of the samples. […]

Caco-2 model = system: Caco-2 model; parameters: method as in PMID 32234388; conditions: cited from earlier work

CCCC(C(=O)c1ccc2c(c1)OCO2)N1CCCC1 (centres unmarked) [MDPV, 3,4-Methylenedioxypyrovalerone]
% peak area variation relative to day 0 ([1]; 10 µM in HBSS (+/+), 6 weeks of storage at 4 °C): 10.9% | % peak area variation relative to day 0 ([1]; 10 µM in HBSS (+/+), 6 weeks of storage at RT): 11.0% | % peak area variation relative to day 0 ([1]; 10 µM in HBSS (+/+), 6 weeks of storage at −20 °C): 12.5% | % peak area variation relative to day 0 ([1]; 10 µM in HBSS (+/+), 6 weeks of storage at −80 °C): 7.1% | % peak area variation relative to day 0 ([1]; 100 µM in HBSS (+/+), 6 weeks of storage at 4 °C): 9.1% | % peak area variation relative to day 0 ([1]; 100 µM in HBSS (+/+), 6 weeks of storage at RT): 11.9% | % peak area variation relative to day 0 ([1]; 100 µM in HBSS (+/+), 6 weeks of storage at −20 °C): 10.4% | % peak area variation relative to day 0 ([1]; 100 µM in HBSS (+/+), 6 weeks of storage at −80 °C): 8.6% | % peak area variation relative to day 0 ([1]; 500 µM in HBSS (+/+), 6 weeks of storage at 4 °C): 3.4% | % peak area variation relative to day 0 ([1]; 500 µM in HBSS (+/+), 6 weeks of storage at RT): 10.2% | % peak area variation relative to day 0 ([1]; 500 µM in HBSS (+/+), 6 weeks of storage at −20 °C): 5.3% | % peak area variation relative to day 0 ([1]; 500 µM in HBSS (+/+), 6 weeks of storage at −80 °C): 6.8% | Concentration from which a significant decrease in cell viability was observed (Caco-2 cells [2]): ≥ 1000 µM | Concentration with no statistically significant differences in cell viability (Caco-2 cells [2]; tested up to 1500 µM): ≤ 750 µM

CCCC(NC)C(=O)c1ccccc1 (centres unmarked) [pentedrone]
Concentration range with no cytotoxic effects (Caco-2 cells [3]): up to 2000 μM

CNC(C)C(=O)c1ccc2c(c1)OCO2 (centres unmarked) [methylone]
Concentration range with no cytotoxic effects (Caco-2 cells [3]): up to 2000 μM

CCC[C@@H](C(=O)c1ccc2c(c1)OCO2)N1CCCC1 [S-(-)-MDPV]
Mass Balance (%) (Caco-2 monolayer; AP → BL direction): 100 ± 2% | Papp (Caco-2 monolayer; AP → BL direction, sink conditions (Equation 6), 300 µM): 1.8e-05 ± 1e-06 cm/s | Mass Balance (%) (Caco-2 monolayer; BL → AP direction): 101 ± 4% | Papp (Caco-2 monolayer; BL → AP direction, non-sink conditions (Equation 7), 300 µM): 3.4 × 10^−5 ± 1 × 10^−6 ****^; # cm/s | Efflux Ratio (Caco-2 monolayer; Papp (BL→AP)/Papp (AP→BL), 300 µM): 1.8 ± 0.2

CN[C@@H](C)C(=O)c1ccc2c(c1)OCO2 [S-(-)-methylone]
Enantioselectivity in permeability (more permeable enantiomer) (Caco-2 model): most permeable

CCC[C@@H](NC)C(=O)c1ccccc1 [R-(-)-pentedrone]
Enantioselectivity in permeability (more permeable enantiomer) (Caco-2 model): most permeable
